Assay results from patent US10752587B2, “Homobispiperidinyl derivatives as liver X receptor beta agonists, compositions and their use” (Merck Sharp & Dohme Corp., priority 2015, dated 2020).

What was measured:
[1] = target: T1, glutathione-S-transferase (GST) tagged LXRbeta LBD (ligand binding domain) (Homo sapiens, UniProt P55055); assay: LanthaScreen TR-FRET Liver X Receptor Coactivator Assay, co-activator recruitment to LXRbeta LBD; format: biochemical; conditions: for LXR beta Activity @ max dose (%) / Emax: efficacy at max dose, in relation to reference dual agonist T0901317; for EC50: potency (Inflection Point, IP), co-activator recruitment to LXRbeta LBD, in relation to T0901317, read-out: LXR beta IP; for Emax: read-out: LXR beta Activity @ max dose (%)
T1 construct: purchased Invitrogen pv4658.pps
T1 sequence (P55055 222-460 limits assumed): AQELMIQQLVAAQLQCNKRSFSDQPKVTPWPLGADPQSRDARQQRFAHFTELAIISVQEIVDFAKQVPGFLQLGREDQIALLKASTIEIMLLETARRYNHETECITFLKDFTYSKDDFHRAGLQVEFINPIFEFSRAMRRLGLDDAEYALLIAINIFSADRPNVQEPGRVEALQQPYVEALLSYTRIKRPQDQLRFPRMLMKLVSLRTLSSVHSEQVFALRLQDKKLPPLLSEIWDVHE
How it was run: (§1)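 TR-FRET coactivator recruitment; compound + LBD, then fluorescein-coactivator peptide/Tb-anti-GST Ab mix; RT incubation; IP and Emax vs T0901317.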

[2] = target: T2, glutathione-S-transferase (GST) tagged LXRalpha LBD (ligand binding domain) (Homo sapiens, UniProt Q13133); assay: LanthaScreen TR-FRET Liver X Receptor Coactivator Assay, co-activator recruitment to LXRalpha LBD; format: biochemical; conditions: for LXR alpha Activity @ max dose (%) / Emax: efficacy at max dose, in relation to reference dual agonist T0901317; for LXR alpha IP (nM) / EC50: potency (Inflection Point, IP), co-activator recruitment to LXRalpha LBD, in relation to T0901317; for Emax: read-out: LXR alpha Activity @ max dose (%); for EC50: read-out: LXR alpha IP
T2 construct: purchased Invitrogen pv4655
T2 sequence (Q13133 209-447 limits assumed): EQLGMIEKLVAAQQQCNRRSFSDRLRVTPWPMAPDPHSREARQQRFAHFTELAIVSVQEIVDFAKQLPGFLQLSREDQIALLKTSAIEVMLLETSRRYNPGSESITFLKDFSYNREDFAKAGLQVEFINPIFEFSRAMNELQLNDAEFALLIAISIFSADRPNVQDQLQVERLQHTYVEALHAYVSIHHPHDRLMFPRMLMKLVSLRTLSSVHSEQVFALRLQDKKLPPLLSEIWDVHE
How it was run: as §1

## CN(C)C(=O)c1ccc(N2CCC(CC3CCN(C(=O)[C@](O)(c4cc(Cl)cc(Cl)c4)C(F)(F)F)CC3)CC2)cc1 [Example 2-142, 4-[4-({1-[(2R)-2-(3,5-dichloro-phenyl)-3,3,3-trifluoro-2-hydroxy-propanoyl]piperidin-4-yl}methyl)piperidin-1-yl]-N,N-dimethyl-benzamide]
[1]
  LXR beta Activity @ max dose (%): 60%
  EC50: 0.06 µM
[2]
  LXR alpha Activity @ max dose (%): 4%
  LXR alpha IP (nM): NO IP

## CN(C)C(=O)c1ccc(N2CCC(CC3CCN(C(=O)[C@](O)(c4cccc(Br)c4)C(F)(F)F)CC3)CC2)cc1 [Example 2-143, 4-[4-({1-[(2R)-2-(3-bromo-phenyl)-3,3,3-trifluoro-2-hydroxy-propanoyl]piperidin-4-yl}methyl)piperidin-1-yl]-N,N-dimethyl-benzamide]
[1]
  Emax: 69%
  EC50: 0.046 µM
[2]
  Emax: 23%
  EC50: 0.413 µM

## CN(C)C(=O)c1ccc(N2CCC(CC3CCN(C(=O)[C@](O)(c4cccc(OC(F)(F)F)c4)C(F)(F)F)CC3)CC2)cc1 [Example 2-144, N,N-dimethyl-4-{4-[(1-{(2R)-3,3,3-trifluoro-2-hydroxy-2-[3-(trifluoro-methoxy)phenyl]propanoyl}piperidin-4-yl)methyl]piperidin-1-yl}benzamide]
[1]
  Emax: 55%
  EC50: 0.078 µM
[2]
  Emax: 14%
  LXR alpha IP (nM): NO IP

## CCOc1cccc([C@@](O)(C(=O)N2CCC(CC3CCN(c4ccc(C(=O)N(C)C)cc4)CC3)CC2)C(F)(F)F)c1 [Example 2-145, 4-[4-({1-[(2R)-2-(3-ethoxy-phenyl)-3,3,3-trifluoro-2-hydroxy-propanoyl]piperidin-4-yl}methyl)piperidin-1-yl]-N,N-dimethyl-benzamide]
[1]
  Emax: 54%
  EC50: 0.073 µM
[2]
  Emax: 4%
  LXR alpha IP (nM): NO IP

## CN(C)C(=O)c1ccc(N2CCC(CC3CCN(C(=O)[C@](O)(c4cccc(Cl)c4)C(F)(F)F)CC3)CC2)cc1 [Example 2-146, 4-[4-({1-[(2R)-2-(3-chloro-phenyl)-3,3,3-trifluoro-2-hydroxy-propanoyl]piperidin-4-yl}methyl)piperidin-1-yl]-N,N-dimethyl-benzamide]
[1]
  LXR beta Activity @ max dose (%): 64%
  EC50: 0.033 µM
[2]
  LXR alpha Activity @ max dose (%): 10%
  LXR alpha IP (nM): NO IP

## Cc1cc(N2CCC(CC3CCN(C(=O)[C@](O)(c4cccc(OC(C)C)c4)C(F)(F)F)CC3)CC2)ccc1C(=O)N(C)C [Example 2-147, N,N,2-trimethyl-4-{4-[(1-{(2R)-3,3,3-trifluoro-2-hydroxy-2-[3-(1-methylethoxy)phenyl]propanoyl}piperidin-4-yl)methyl]piperidin-1-yl}benzamide]
[1]
  Emax: 52%
  EC50: 0.019 µM
[2]
  Emax: 7%
  LXR alpha IP (nM): NO IP

## Cc1cc(N2CCC(CC3CCN(C(=O)[C@](O)(c4cccc(C(F)(F)F)c4)C(F)(F)F)CC3)CC2)ccc1C(=O)N(C)C [Example 2-148, N,N,2-trimethyl-4-{4-[(1-{(2R)-3,3,3-trifluoro-2-hydroxy-2-[3-(trifluoromethyl)phenyl]propanoyl}piperidin-4-yl)methyl]piperidin-1-yl}benzamide]
[1]
  Emax: 62%
  EC50: 0.024 µM
[2]
  Emax: 22%
  EC50: 0.4 µM

## Cc1cc(N2CCC(CC3CCN(C(=O)[C@](O)(c4cccc(C(C)C)c4)C(F)(F)F)CC3)CC2)ccc1C(=O)N(C)C [Example 2-149, N,N,2-trimethyl-4-{4-[(1-{(2R)-3,3,3-trifluoro-2-hydroxy-2-[3-(1-methyl-ethyl)phenyl]propanoyl}piperidin-4-yl)methyl]piperidin-1-yl}benzamide]
[1]
  Emax: 54%
  EC50: 0.02 µM
[2]
  Emax: 14%
  LXR alpha IP (nM): NO IP

## Cc1cc(N2CCC(CC3CCN(C(=O)[C@](O)(c4cccc(OC(F)(F)F)c4)C(F)(F)F)CC3)CC2)ccc1C(=O)N(C)C [Example 2-150, N,N,2-trimethyl-4-{4-[(1-{(2R)-3,3,3-trifluoro-2-hydroxy-2-[3-(trifluoromethoxy)phenyl]propanoyl}piperidin-4-yl)methyl]piperidin-1-yl}benzamide]
[1]
  Emax: 56%
  EC50: 0.023 µM
[2]
  Emax: 15%
  LXR alpha IP (nM): NO IP

## CCOc1cccc([C@@](O)(C(=O)N2CCC(CC3CCN(c4ccc(C(=O)N(C)C)c(C)c4)CC3)CC2)C(F)(F)F)c1 [Example 2-151, 4-[4-({1-[(2R)-2-(3-ethoxy-phenyl)-3,3,3-trifluoro-2-hydroxy-propanoyl]piperidin-4-yl}methyl)piperidin-1-yl]-N,N,2-trimethyl-benzamide]
[1]
  Emax: 45%
  EC50: 0.009 µM
[2]
  Emax: 4%
  LXR alpha IP (nM): NO IP

## COc1cc(F)cc([C@@](O)(C(=O)N2CCC(CC3CCN(c4ccc(C(=O)N(C)C)c(C)c4)CC3)CC2)C(F)(F)F)c1 [Example 2-152, N,N,2-trimethyl-4-[4-({1-[(2R)-3,3,3-trifluoro-2-(3-fluoro-5-methoxyphenyl)-2-hydroxy-propanoyl]piperidin-4-yl}methyl)piperidin-1-yl]benzamide]
[1]
  Emax: 74%
  EC50: 0.011 µM
[2]
  Emax: 18%
  LXR alpha IP (nM): NO IP

## Cc1cc(N2CCC(CC3CCN(C(=O)[C@](O)(c4cc(F)cc(Cl)c4)C(F)(F)F)CC3)CC2)ccc1C(=O)N(C)C [Example 2-153, 4-[4-({1-[(2R)-2-(3-chloro-5-fluorophenyl)-3,3,3-trifluoro-2-hydroxy-propanoyl]piperidin-4-yl}methyl)piperidin-1-yl]-N,N,2-trimethyl-benzamide]
[1]
  Emax: 95%
  EC50: 0.008 µM
[2]
  Emax: 41%
  EC50: 0.123 µM

## Cc1cc(N2CCC(CC3CCN(C(=O)[C@](O)(c4cc(Cl)cc(Cl)c4)C(F)(F)F)CC3)CC2)ccc1C(=O)N(C)C [Example 2-154, 4-[4-({1-[(2R)-2-(3,5-dichloro-phenyl)-3,3,3-trifluoro-2-hydroxy-propanoyl]piperidin-4-yl}methyl)piperidin-1-yl]-N,N,2-trimethyl-benzamide]
[1]
  Emax: 54%
  EC50: 0.023 µM
[2]
  Emax: 6%
  LXR alpha IP (nM): NO IP

## Cc1cc(N2CCC(CC3CCN(C(=O)[C@](O)(c4ccccc4)C(F)(F)F)CC3)CC2)ccc1C(=O)N(C)C [Example 2-155, N,N,2-trimethyl-4-[4-({1-[(2R)-3,3,3-trifluoro-2-hydroxy-2-phenyl-propanoyl]piperidin-4-yl}methyl)piperidin-1-yl]benzamide]
[1]
  Emax: 69%
  EC50: 0.025 µM
[2]
  Emax: 33%
  EC50: 0.386 µM

## CCc1cccc([C@@](O)(C(=O)N2CCC(CC3CCN(c4ccc(C(=O)N(C)C)c(C)c4)CC3)CC2)C(F)(F)F)c1 [Example 2-156, 4-[4-({1-[(2R)-2-(3-ethyl-phenyl)-3,3,3-trifluoro-2-hydroxy-propanoyl]piperidin-4-yl}methyl)piperidin-1-yl]-N,N,2-trimethyl-benzamide]
[1]
  Emax: 42%
  EC50: 0.021 µM
[2]
  Emax: 12%
  LXR alpha IP (nM): NO IP

## Cc1cccc([C@@](O)(C(=O)N2CCC(CC3CCN(c4ccc(C(=O)N(C)C)c(C)c4)CC3)CC2)C(F)(F)F)c1 [Example 2-157, N,N,2-trimethyl-4-[4-({1-[(2R)-3,3,3-trifluoro-2-hydroxy-2-(3-methylphenyl)propanoyl]piperidin-4-yl}methyl)piperidin-1-yl]benzamide]
[1]
  Emax: 43%
  EC50: 0.016 µM
[2]
  Emax: 9%
  LXR alpha IP (nM): NO IP

## COc1cccc([C@@](O)(C(=O)N2CCC(CC3CCN(c4ccc(C(=O)N(C)C)c(C)c4)CC3)CC2)C(F)(F)F)c1 [Example 2-158, N,N,2-trimethyl-4-[4-({1-[(2R)-3,3,3-trifluoro-2-hydroxy-2-(3-methoxyphenyl)propanoyl]piperidin-4-yl}methyl)piperidin-1-yl]benzamide]
[1]
  Emax: 44%
  EC50: 0.02 µM
[2]
  Emax: 6%
  LXR alpha IP (nM): NO IP

## Cc1cc(N2CCC(CC3CCN(C(=O)[C@](O)(c4cccc(Cl)c4)C(F)(F)F)CC3)CC2)ccc1C(=O)N(C)C [Example 2-159, 4-[4-({1-[(2R)-2-(3-chloro-phenyl)-3,3,3-trifluoro-2-hydroxy-propanoyl]piperidin-4-yl}methyl)piperidin-1-yl]-N,N,2-trimethyl-benzamide]
[1]
  Emax: 65%
  EC50: 0.021 µM
[2]
  Emax: 22%
  EC50: 0.156 µM

## CN(C)C(=O)c1ccc(N2CCC(CC3CCCN(C(=O)[C@](O)(c4ccccc4)C(F)(F)F)CC3)CC2)cc1Cl (stereo partly drawn) [Example 2-160, 2-chloro-N,N-dimethyl-4-[4-({1-[(2R)-3,3,3-trifluoro-2-hydroxy-2-phenyl-propanoyl]azepan-4-yl}methyl)piperidin-1-yl]benzamide]
[1]
  Emax: 33%
  EC50: 0.026 µM
[2]
  Emax: 12%
  LXR alpha IP (nM): NO IP
